From ChEMBL document CHEMBL1149970, “Novel dithiocarbamate carbapenems1 with anti-MRSA activity” (Bioorg Med Chem Lett, 1997)
≈ marks a conversion by molar mass, not a printed value.

Legend:
[1] = target: T1, Dipeptidase 1 (Sus scrofa) (UniProt P22412); test: Relative rate of hydrolysis of porcine renal dehydropeptidase-I (DHP-I) to imipenem; format: functional
T1 sequence (whole entry): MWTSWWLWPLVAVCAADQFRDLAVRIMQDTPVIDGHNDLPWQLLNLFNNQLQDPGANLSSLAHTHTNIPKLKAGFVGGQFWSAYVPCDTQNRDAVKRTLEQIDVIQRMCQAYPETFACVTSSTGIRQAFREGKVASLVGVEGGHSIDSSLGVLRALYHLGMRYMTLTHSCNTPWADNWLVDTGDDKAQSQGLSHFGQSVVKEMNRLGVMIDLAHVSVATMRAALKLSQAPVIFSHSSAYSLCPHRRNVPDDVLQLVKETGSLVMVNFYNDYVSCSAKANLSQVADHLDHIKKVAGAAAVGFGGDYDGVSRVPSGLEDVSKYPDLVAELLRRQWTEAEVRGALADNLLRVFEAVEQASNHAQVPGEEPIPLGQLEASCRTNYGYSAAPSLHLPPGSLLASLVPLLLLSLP

Enterococcus faecalis = test: In vitro antibacterial activity against Enterococcus faecalis MB4996 organism; format: functional
Escherichia coli = test: In vitro antibacterial activity against Escherichia coli NIHJ JC2 organism; format: functional
Pseudomonas aeruginosa = test: In vitro antibacterial activity against Pseudomonas aeruginosa MB5002 organism; format: functional
[2] = system: Staphylococcus epidermidis; test: In vitro antibacterial activity against Staphylococcus epidermidis MB5181a organism; format: functional; details: Staphylococcus epidermidis; read-out: MIC
Staphylococcus aureus [3] = test: In vitro antibacterial activity against staphylococcus aureus 209P NIHJ JC1 organism; format: functional
Staphylococcus aureus [4] = test: In vitro antibacterial activity against staphylococcus aureus BB6294 organism (Methicillin-resistant strain); format: functional
Staphylococcus aureus [5] = test: In vitro antibacterial activity against staphylococcus aureus CSa1009 (Methicillin-resistant strain and b beta-Lactamase producing strain); format: functional
[6] = Compound was measured for binding rate for human serum at a carbapenem concentration of 10 ug/mL; format: ADME; details: read-out: Protein binding (converted)
[7] = target: T1, Dipeptidase 1 (Sus scrofa); test: Compound was measured for DHP-I susceptibility; format: functional
Mus musculus = organism: Mus musculus; test: Compound was measured for binding rate for mouse serum at a carbapenem concentration of 10 ug/mL; format: functional
Rattus norvegicus [8] = test: Epileptogenicity of compound was measured at 100 ug/rat head by the rat intraventricular assay; 3/5; format: functional
Staphylococcus aureus [9] = test: Compound was tested in vivo for its anti-methicillin-resistant staphylococcus aureus(MRSA); format: functional
Staphylococcus aureus [10] = test: Compound was tested in vitro for its anti-methicillin-resistant staphylococcus aureus(MRSA); 3.13-12.5; format: functional
[11] = PBP-2'' affinity was determined by the competition assay with [14C]benzylpenicillin using membrane isolated from MRSA BB6294 strain; format: functional, Staphylococcus aureus
Rattus norvegicus [12] = test: Epileptogenicity of compound was measured at 100 ug/rat head by the rat intraventricular assay; 0/5; format: functional, Cerebral ventricle
Staphylococcus aureus [13] = test: Compound was tested in vitro for its anti-methicillin-resistant staphylococcus aureus(MRSA); 3.13-6.25; format: functional

SMILES: C[C@@H](O)[C@H]1C(=O)N2C(C(=O)O)=C(SC(=S)N3CCCCC3)[C@H](C)[C@H]12
- DHP-I susceptibility [1]: 3.1
- MIC (Enterococcus faecalis): 6.25 µg/mL (≈ 16.9 µM)
- MIC (Escherichia coli): 25 µg/mL (≈ 67.5 µM)
- MIC (Pseudomonas aeruginosa): > 25 µg/mL
- MIC [2]: 3.13 µg/mL (≈ 8.45 µM)
- MIC (Staphylococcus aureus [3]): 0.025 µg/mL (≈ 0.0675 µM)
- MIC (Staphylococcus aureus [4]): 1.56 µg/mL (≈ 4.21 µM)
- MIC (Staphylococcus aureus [5]): 3.13 µg/mL (≈ 8.45 µM)

SMILES: C[C@@H](O)[C@H]1C(=O)N2C(C(=O)[O-])=C(SC(=S)N3CC[N+](C)(Cc4ccccc4)CC3)[C@H](C)[C@H]12
- fraction unbound at 10 ug/mL [6]: 0.4
- DHP-I susceptibility [1]: 0.15
- DHP-I susceptibility [7]: 0.15
- MIC (Enterococcus faecalis): 1.56 µg/mL (≈ 3.28 µM)
- MIC (Escherichia coli): 1.56 µg/mL (≈ 3.28 µM)
- PPB (Mus musculus): 82%
- MIC (Pseudomonas aeruginosa): > 25 µg/mL
- Epileptogenicity (Rattus norvegicus [8]): 3
- MIC [2]: 1.56 µg/mL (≈ 3.28 µM)
- ED50 (Staphylococcus aureus [9]): 10 mg/kg
- MIC (Staphylococcus aureus [3]): < 0.006 µg/mL
- MIC (Staphylococcus aureus [4]): 3.13 µg/mL (≈ 6.58 µM)
- MIC (Staphylococcus aureus [5]): 6.25 µg/mL (≈ 13.1 µM)
- MIC (Staphylococcus aureus [10]): 5.36 µg/mL (≈ 11.3 µM)

SMILES: C[C@@H](O)[C@H]1C(=O)N2C(C(=O)O)=C(SC(=S)N3CCCCCC3)[C@H](C)[C@H]12
- DHP-I susceptibility [1]: 3.09
- MIC (Enterococcus faecalis): 6.25 µg/mL (≈ 16.3 µM)
- MIC (Escherichia coli): > 25 µg/mL
- MIC (Pseudomonas aeruginosa): > 25 µg/mL
- MIC [2]: 1.56 µg/mL (≈ 4.06 µM)
- MIC (Staphylococcus aureus [3]): 0.012 µg/mL (≈ 0.0312 µM)
- MIC (Staphylococcus aureus [4]): 1.56 µg/mL (≈ 4.06 µM)
- MIC (Staphylococcus aureus [5]): 1.56 µg/mL (≈ 4.06 µM)

SMILES: CCN(CC)C(=S)SC1=C(C(=O)O)N2C(=O)[C@H]([C@@H](C)O)[C@H]2[C@H]1C
- DHP-I susceptibility [1]: 2.51
- MIC (Enterococcus faecalis): 12.5 µg/mL (≈ 34.9 µM)
- MIC (Escherichia coli): 25 µg/mL (≈ 69.7 µM)
- MIC (Pseudomonas aeruginosa): 25 µg/mL (≈ 69.7 µM)
- MIC [2]: 3.13 µg/mL (≈ 8.73 µM)
- MIC (Staphylococcus aureus [3]): 0.025 µg/mL (≈ 0.0697 µM)
- MIC (Staphylococcus aureus [4]): 3.13 µg/mL (≈ 8.73 µM)
- MIC (Staphylococcus aureus [5]): 3.13 µg/mL (≈ 8.73 µM)

SMILES: C[C@@H](O)[C@H]1C(=O)N2C(C(=O)O)=C(SC(=S)N3CCCC(O)CC3)[C@H](C)[C@H]12 (some centres not stated)
- fraction unbound at 10 ug/mL [6]: 0.15
- DHP-I susceptibility [1]: 2.88
- DHP-I susceptibility [7]: 2.88
- MIC (Enterococcus faecalis): 3.13 µg/mL (≈ 7.81 µM)
- MIC (Escherichia coli): 12.5 µg/mL (≈ 31.2 µM)
- PPB (Mus musculus): 92%
- IC50 [11]: 1.9 µg/mL (≈ 4.74 µM)
- MIC (Pseudomonas aeruginosa): > 25 µg/mL
- Epileptogenicity (Rattus norvegicus [12]): 0
- MIC [2]: 3.13 µg/mL (≈ 7.81 µM)
- ED50 (Staphylococcus aureus [9]): 2.88 mg/kg
- MIC (Staphylococcus aureus [3]): 0.012 µg/mL (≈ 0.03 µM)
- MIC (Staphylococcus aureus [4]): 3.13 µg/mL (≈ 7.81 µM)
- MIC (Staphylococcus aureus [5]): 3.13 µg/mL (≈ 7.81 µM)
- MIC (Staphylococcus aureus [13]): 3.55 µg/mL (≈ 8.86 µM)

SMILES: CCN(CCO)C(=S)SC1=C(C(=O)O)N2C(=O)[C@H]([C@@H](C)O)[C@H]2[C@H]1C
- DHP-I susceptibility [1]: 2.38
- MIC (Enterococcus faecalis): 6.25 µg/mL (≈ 16.7 µM)
- MIC (Escherichia coli): 6.25 µg/mL (≈ 16.7 µM)
- MIC (Pseudomonas aeruginosa): > 25 µg/mL
- MIC [2]: 3.13 µg/mL (≈ 8.36 µM)
- MIC (Staphylococcus aureus [3]): 0.025 µg/mL (≈ 0.0668 µM)
- MIC (Staphylococcus aureus [4]): 6.25 µg/mL (≈ 16.7 µM)
- MIC (Staphylococcus aureus [5]): 6.25 µg/mL (≈ 16.7 µM)

SMILES: CN[C@H](CC(C)C)C(=O)N[C@H]1C(=O)N[C@@H](CC(N)=O)C(=O)N[C@H]2C(=O)N[C@H]3C(=O)N[C@H](C(=O)N[C@H](C(=O)O)c4cc(O)cc(O)c4-c4cc3ccc4O)[C@H](O)c3ccc(c(Cl)c3)Oc3cc2cc(c3O[C@@H]2O[C@H](CO)[C@@H](O)[C@H](O)[C@H]2O[C@H]2C[C@](C)(N)[C@H](O)[C@H](C)O2)Oc2ccc(cc2Cl)[C@H]1O [VANCOMYCIN]
- MIC (Escherichia coli): > 25 µg/mL
- MIC (Pseudomonas aeruginosa): > 25 µg/mL
- ED50 (Staphylococcus aureus [9]; Staphylococcus aureus): 5.56 mg/kg
- MIC (Staphylococcus aureus [3]): 0.39 µg/mL (≈ 0.269 µM)

SMILES: C[C@@H](O)[C@H]1C(=O)N2C(C(=O)O)=C(SC(=S)N3CCC(O)C3)[C@H](C)[C@H]12 (some centres not stated)
- DHP-I susceptibility [1]: 2.21
- MIC (Enterococcus faecalis): 6.25 µg/mL (≈ 16.8 µM)
- MIC (Escherichia coli): 0.78 µg/mL (≈ 2.09 µM)
- MIC (Pseudomonas aeruginosa): > 25 µg/mL
- MIC [2]: 3.13 µg/mL (≈ 8.4 µM)
- MIC (Staphylococcus aureus [3]): 0.025 µg/mL (≈ 0.0671 µM)
- MIC (Staphylococcus aureus [4]): 6.25 µg/mL (≈ 16.8 µM)
- MIC (Staphylococcus aureus [5]): 6.25 µg/mL (≈ 16.8 µM)

SMILES: CCCN(C)C(=S)SC1=C(C(=O)O)N2C(=O)[C@H]([C@@H](C)O)[C@H]2[C@H]1C
- DHP-I susceptibility [1]: 2.71
- MIC (Enterococcus faecalis): 6.25 µg/mL (≈ 17.4 µM)
- MIC (Escherichia coli): 25 µg/mL (≈ 69.7 µM)
- MIC (Pseudomonas aeruginosa): 25 µg/mL (≈ 69.7 µM)
- MIC [2]: 3.13 µg/mL (≈ 8.73 µM)
- MIC (Staphylococcus aureus [3]): 0.025 µg/mL (≈ 0.0697 µM)
- MIC (Staphylococcus aureus [4]): 3.13 µg/mL (≈ 8.73 µM)
- MIC (Staphylococcus aureus [5]): 3.13 µg/mL (≈ 8.73 µM)

SMILES: C[C@@H](O)[C@H]1C(=O)N2C(C(=O)O)=C(SC(=S)N3CCCC3)C[C@H]12
- DHP-I susceptibility [1]: 11.7
- MIC [2]: 12.5 µg/mL (≈ 36.5 µM)
- MIC (Staphylococcus aureus [3]): 0.025 µg/mL (≈ 0.073 µM)
- MIC (Staphylococcus aureus [4]): 6.25 µg/mL (≈ 18.3 µM)
- MIC (Staphylococcus aureus [5]): 25 µg/mL (≈ 73 µM)

SMILES: C[C@@H](O)[C@H]1C(=O)N2C(C(=O)O)=C(SC(=S)N(C)Cc3ccccc3)[C@H](C)[C@H]12
- DHP-I susceptibility [1]: 1.94
- MIC (Enterococcus faecalis): 1.56 µg/mL (≈ 3.84 µM)
- MIC (Escherichia coli): 12.5 µg/mL (≈ 30.7 µM)
- MIC (Pseudomonas aeruginosa): > 25 µg/mL
- MIC [2]: 3.13 µg/mL (≈ 7.7 µM)
- MIC (Staphylococcus aureus [3]): 0.012 µg/mL (≈ 0.0295 µM)
- MIC (Staphylococcus aureus [4]): 1.56 µg/mL (≈ 3.84 µM)
- MIC (Staphylococcus aureus [5]): 1.56 µg/mL (≈ 3.84 µM)

SMILES: CCN(C)C(=S)SC1=C(C(=O)O)N2C(=O)[C@H]([C@@H](C)O)[C@H]2[C@H]1C
- DHP-I susceptibility [1]: 2.26
- MIC (Enterococcus faecalis): 6.25 µg/mL (≈ 18.1 µM)
- MIC (Escherichia coli): 6.25 µg/mL (≈ 18.1 µM)
- MIC (Pseudomonas aeruginosa): > 25 µg/mL
- MIC [2]: 3.13 µg/mL (≈ 9.09 µM)
- MIC (Staphylococcus aureus [3]): 0.025 µg/mL (≈ 0.0726 µM)
- MIC (Staphylococcus aureus [4]): 3.13 µg/mL (≈ 9.09 µM)
- MIC (Staphylococcus aureus [5]): 3.13 µg/mL (≈ 9.09 µM)
